Common to all, as to assay: Kinase panel profiling at 1 µmol/L (MSA or IMAP), percentage inhibition
What all share (assay type): biochemical

Assay [1] deals with panel of 255 wild-type kinases (Homo sapiens, UniProt P23458). The settings on record: kinase JAK1; 1 µmol/L single concentration; read-out: %-inhibition at 1 µmol/L, JAK1.
Assay [2] has as its target T1, panel of 255 wild-type kinases (Homo sapiens, UniProt P29320).
T1 sequence (P29320 21-983): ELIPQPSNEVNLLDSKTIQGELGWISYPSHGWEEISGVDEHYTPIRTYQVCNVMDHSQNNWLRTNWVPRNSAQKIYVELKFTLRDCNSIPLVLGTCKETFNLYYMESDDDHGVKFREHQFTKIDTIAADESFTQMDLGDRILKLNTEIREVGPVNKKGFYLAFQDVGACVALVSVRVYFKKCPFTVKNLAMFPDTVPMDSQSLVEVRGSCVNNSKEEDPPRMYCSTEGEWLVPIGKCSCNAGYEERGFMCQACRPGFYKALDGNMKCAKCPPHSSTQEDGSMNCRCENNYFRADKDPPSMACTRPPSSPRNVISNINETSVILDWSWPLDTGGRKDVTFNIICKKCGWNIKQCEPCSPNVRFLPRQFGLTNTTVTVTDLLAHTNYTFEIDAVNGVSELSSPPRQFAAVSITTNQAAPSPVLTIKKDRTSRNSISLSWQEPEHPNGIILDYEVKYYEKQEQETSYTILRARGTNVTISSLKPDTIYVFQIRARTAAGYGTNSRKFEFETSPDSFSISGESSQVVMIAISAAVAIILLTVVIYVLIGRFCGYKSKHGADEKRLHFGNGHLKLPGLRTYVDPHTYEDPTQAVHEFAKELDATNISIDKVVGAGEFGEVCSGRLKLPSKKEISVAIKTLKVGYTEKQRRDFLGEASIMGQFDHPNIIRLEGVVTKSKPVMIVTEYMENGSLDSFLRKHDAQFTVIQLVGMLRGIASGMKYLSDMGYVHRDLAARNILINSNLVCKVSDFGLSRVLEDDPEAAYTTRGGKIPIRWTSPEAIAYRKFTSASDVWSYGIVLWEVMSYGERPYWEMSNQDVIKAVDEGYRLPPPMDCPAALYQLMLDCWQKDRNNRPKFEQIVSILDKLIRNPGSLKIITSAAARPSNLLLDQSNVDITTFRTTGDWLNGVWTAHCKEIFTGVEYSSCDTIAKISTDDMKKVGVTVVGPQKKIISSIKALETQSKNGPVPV
Conditions: kinase EPHA3; 1 µmol/L single concentration; read-out: %-inhibition at 1 µmol/L, EPHA3.

For assay [3], the target named is panel of 255 wild-type kinases (Homo sapiens, UniProt P45983). Conditions: kinase JNK1; 1 µmol/L single concentration; read-out: %-inhibition at 1 µmol/L, JNK1.
Assay [4] deals with panel of 255 wild-type kinases (Homo sapiens, UniProt P50750). Conditions: CDK9/CycT1 kinase assay; 1 µmol/L single concentration; read-out: %-inhibition CDK9/CycT1.
For assay [5], the target named is T2, panel of 255 wild-type kinases (Homo sapiens, UniProt P51955).
T2 sequence (P51955 1-445): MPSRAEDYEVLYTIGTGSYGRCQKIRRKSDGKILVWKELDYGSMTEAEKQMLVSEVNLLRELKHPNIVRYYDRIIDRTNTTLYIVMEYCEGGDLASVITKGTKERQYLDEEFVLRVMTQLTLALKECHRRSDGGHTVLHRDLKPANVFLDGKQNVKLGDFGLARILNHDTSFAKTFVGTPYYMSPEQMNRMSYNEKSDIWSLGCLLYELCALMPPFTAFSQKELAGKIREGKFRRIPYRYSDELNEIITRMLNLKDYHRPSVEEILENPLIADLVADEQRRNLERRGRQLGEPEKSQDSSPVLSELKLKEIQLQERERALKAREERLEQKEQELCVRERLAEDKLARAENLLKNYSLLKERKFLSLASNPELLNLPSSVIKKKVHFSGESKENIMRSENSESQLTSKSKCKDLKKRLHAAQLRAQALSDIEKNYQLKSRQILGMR
The settings on record: NEK2; 1 µmol/L single concentration; read-out: %-inhibition, NEK2.

The target in assay [6] is panel of 255 wild-type kinases (Homo sapiens, UniProt P51957). The settings on record: NEK4; 1 µmol/L single concentration; read-out: %-inhibition, NEK4.
For assay [7], the target named is panel of 255 wild-type kinases (Homo sapiens, UniProt P57059). Conditions: kinase SIK; 1 µmol/L single concentration; read-out: %-inhibition at 1 µmol/L, SIK.
Assay [8] has as its target panel of 255 wild-type kinases (Homo sapiens, UniProt Q00534). Conditions: CDK6/CycD3 kinase assay; 1 µmol/L single concentration; read-out: %-inhibition CDK6/CycD3.
The target of assay [9] is panel of 255 wild-type kinases (Homo sapiens, UniProt Q9H0K1). The settings on record: kinase QIK; 1 µmol/L single concentration; read-out: %-inhibition at 1 µmol/L, QIK.
The target of assay [10] is panel of 255 wild-type kinases (Homo sapiens, UniProt Q9UM73). The settings on record: ALK kinase assay; 1 µmol/L single concentration; read-out: %-inhibition ALK.

Among the data in paper PMC9516332 (Frontiers in Oncology, 2022) are inhibition values, retold here.

In the case of `CCN1CCN(c2ccc(Nc3cc(N(C)C(=O)Nc4c(Cl)c(OC)cc(OC)c4Cl)ncn3)cc2)CC1` [infigratinib], the inhibition at 1 µM in assay [1] was 2.57%; in assay [2], -0.311%; in assay [3] it was -3.19%; in assay [4], -0.383%; in assay [5], 27%; in assay [6], 13%. The inhibition at 1 µM in assay [7] came to 30%; in assay [8] it was 17%; in [9], 26%; in assay [10], 43%.
For the compound `O=C(Nc1cnn2ccc(N3CCC[C@@H]3c3cc(F)ccc3F)nc12)N1CC[C@H](O)C1` [larotrectinib], the inhibition at 1 µM in assay [1] is 0.894%; in assay [2] it was 0.702%; in assay [3], -3.55%; in assay [4] it was -0.399%; in [5], -0.367%; in [6] it was 0.695%. The inhibition at 1 µM in assay [7] was -1.7%; in assay [8], -0.0563%; in [9], -6.33%; in assay [10], 7%.
Consider `CCN1C(=O)N(c2c(F)c(OC)cc(OC)c2F)Cc2cnc3[nH]c(CN4CCOCC4)cc3c21` [pemigatinib], for which the inhibition at 1 µM was -2.65% in assay [1]; 0.534% in assay [2]; -4.3% in assay [3]; 7% in [4]; -2% in assay [5]; 6.33% in assay [6]. Besides, the inhibition at 1 µM in assay [7] was 22%; in assay [8] it was 48%; in [9], 6.5%; in assay [10], -1.12%.
As for `FC(F)(F)c1ccc(CNc2ccc(Cc3c[nH]c4ncc(Cl)cc34)cn2)cn1` [pexidartinib], the inhibition at 1 µM in [1] is 7%; in [2], 2.11%; in [3], -1.87%; in [4], 7%; in assay [5], -0.918%; in assay [6], 2.69%. Further, the inhibition at 1 µM in assay [7] is 9%; in assay [8], -6.52%; in assay [9], 11%; in assay [10], 11%.
Regarding `CO[C@]1(C(=O)N[C@@H](C)c2ccc(-n3cc(F)cn3)nc2)CC[C@H](c2nc(C)cc(Nc3cc(C)[nH]n3)n2)CC1` [pralsetinib], the inhibition at 1 µM in assay [1] is 101%; in assay [2], 32%; in [3], -5%; in assay [4] it was 6%; in [5], 7.4%; in assay [6], 2.56%. Moreover, the inhibition at 1 µM in assay [7] was 1.69%; in assay [8], -1.2%; in assay [9], -2.55%; in assay [10], 35%.
`CCn1c(=O)c(-c2cc(NC(=O)Nc3ccccc3)c(F)cc2Br)cc2cnc(NC)cc21` [ripretinib]: the inhibition at 1 µM in assay [1] is 26%; in assay [2], 88%; in assay [3], 4%; in assay [4], 0.112%; in [5] it was -0.18%; in assay [6], 19%. Also, the inhibition at 1 µM was 66% in assay [7], -7% in assay [8], 7% in [9] and 2.68% in assay [10].
For the compound `COc1ccc(CN2C3CC2CN(c2ccc(-c4cc(OCC(C)(C)O)cn5ncc(C#N)c45)cn2)C3)cn1` [selpercatinib], the inhibition at 1 µM in [1] was 6%; in assay [2], 49%; in [3], -5.39%; in assay [4], 2.54%; in assay [5], 2%; in assay [6] it was 0.858%. The inhibition at 1 µM in assay [7] was 9%; in assay [8], 0.675%; in assay [9] it was -2.53%; in assay [10], 4%.
In the case of `Cc1cc(Nc2ncnc3ccc(NC4=NC(C)(C)CO4)cc23)ccc1Oc1ccn2ncnc2c1` [tucatinib], the inhibition at 1 µM in assay [1] is 2.72%; in [2], -10%; in assay [3] it was -3.72%; in assay [4] it was 1.53%; in assay [5], 2.8%; in assay [6], 2.39%. In addition, the inhibition at 1 µM in [7] was 0.717%; in assay [8], -2.12%; in assay [9], -2.58%; in [10], 32%.
As for `C=CC(=O)N1CCC([C@@H]2CCNc3c(C(N)=O)c(-c4ccc(Oc5ccccc5)cc4)nn32)CC1` [zanubrutinib], the inhibition at 1 µM is -3% in assay [1]; -0.0989% in assay [2]; -3.49% in assay [3]; -1.15% in [4]; -0.59% in assay [5]; 1% in [6]. In addition, the inhibition at 1 µM in [7] is -2%; in assay [8], 3.49%; in assay [9] it was -4%; in assay [10], 2.23%.
